Measured values from PubChem BioAssay (NCI).
Values joined by “and” are separate entries in the source; they are usually repeats but may differ in a detail not shown here. Equal entries are not always repeated.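 These data come from cells grown in 96-well plates and exposed to compound for 48 hours at five concentrations. Here, GI50 denotes the concentration required for 50% inhibition of growth. At the TGI there is no net growth.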

What was measured:
Assay in all cases: inhibition of tumour cell growth, NCI panel, 48 h; in the data active = GI50 below about 0.43 µM; inactive = the rest
[1] = system: LXFL 529 NSCLC
[2] = system: DMS 114 small cell lung
[3] = system: SN12C renal
[4] = system: MALME-3M melanoma
[5] = system: DLD-1 colon
[6] = system: SK-MEL-2 melanoma
[7] = system: DMS 273 small cell lung
[8] = system: CCRF-CEM leukemia
[9] = system: LOX IMVI melanoma
[10] = system: SF-539 CNS
[11] = system: DU-145 prostate
[12] = system: BT-549 breast

COc1cc2ccc(CC(=O)O)cc2cc1OC
> 100 µM: TGI [1] | TGI [2] | TGI [3] | TGI [4] | TGI [5] | TGI [6] | TGI [7] | TGI [8]

O=C(O)c1cc2ccc(Cl)cc2c(O)c1C1=CCCCC1
63.6 µM: TGI [2]
68.8 µM: TGI [7]
> 100 µM: TGI [1] | TGI [3] | TGI [4] | TGI [9] | TGI [5] | TGI [10] | TGI [8]
63.8 µM: TGI [6]

COc1ccc(C2C(C(=O)O)=C(COC(C)=O)Oc3cc4c(cc32)OCO4)c(OC)c1 (stereo not given)
> 100 µM: TGI [2] | TGI [3] | TGI [4] | TGI [9] | TGI [5] | TGI [6] | TGI [10] | TGI [7] | TGI [8]

Clc1ccc(/C=C/c2csnn2)cc1
> 100 µM: TGI [1] | TGI [2] | TGI [3] | TGI [4] | TGI [9] | TGI [5] | TGI [6] | TGI [10] | TGI [7] | TGI [8]

Cc1cccc(NC(=O)CSc2nnc(-c3ccc(N=Cc4ccc(Cl)cc4)cc3)o2)c1
> 100 µM: TGI [1] | TGI [2] | TGI [3] | TGI [4] | TGI [9] | TGI [6] | TGI [7] | TGI [8]

Nc1cccc(C(=O)/C=C/c2ccccc2O)c1
> 100 µM: TGI [1] | TGI [2] | TGI [3] | TGI [4] | TGI [9] | TGI [5] | TGI [6] | TGI [10] | TGI [7] | TGI [8]

CC1(C)O[C@@H](CCl)C[C@@H](C#N)O1
> 100 µM: TGI [2] | TGI [4] | TGI [9] | TGI [5] | TGI [6] | TGI [10] | TGI [7] | TGI [8]

NC(=O)C1C(=O)Oc2cccnc21 (stereo not given)
> 100 µM: TGI [2] | TGI [3] | TGI [4] | TGI [9] | TGI [5] | TGI [10] | TGI [7] | TGI [8]

CN(C)CN(C)c1nc(N(C)C)nc(N(C)C)n1
> 100 µM: TGI [1] | TGI [2] | TGI [3] | TGI [4] | TGI [9] | TGI [5] | TGI [6] | TGI [10] | TGI [7] | TGI [8]

O=C(Cn1ccnc1[N+](=O)[O-])NCc1ccc(F)cc1
> 100 µM: TGI [1] | TGI [2] | TGI [3] | TGI [4] | TGI [9] | TGI [6] | TGI [10] | TGI [7] | TGI [8]

CN(C)CCC(/C=C/c1ccccc1)=N\Nc1c(F)c(F)c(F)c(F)c1F
> 100 µM: TGI [1] | TGI [2] | TGI [3] | TGI [4] | TGI [9] | TGI [5] | TGI [6] | TGI [10] | TGI [7] | TGI [8]

CN(C)CC(=O)N1CCc2c([nH]c3ccccc23)C1c1cccnc1 (stereo not given)
1.37 µM: TGI [7]
inactive: GI50 [11] > 100 µM | GI50 [12] 12.9 µM | GI50 [4] > 100 µM | GI50 [6] > 100 µM
77.4 µM: TGI [12]
> 100 µM: TGI [1] | TGI [11] | TGI [2] | TGI [3] | TGI [4] | TGI [9] | TGI [5] | TGI [6] | TGI [10] | TGI [8]

COc1ccc(S(=O)(=O)NNS(C)(=O)=O)cc1OC
> 100 µM: TGI [1] | TGI [3] | TGI [4] | TGI [9] | TGI [5] | TGI [6] | TGI [10] | TGI [7] | TGI [8]

Nc1nc2c(ncn2C2OC(CO)C(O)C2O)c(=O)[nH]1 (stereo not given)
> 100 µM and 145 µM: TGI [9]
214 µM: TGI [2]
> 100 µM and 160 µM: TGI [10]
159 µM: TGI [7]
> 100 µM and 217 µM: TGI [8]
142 µM: TGI [5]
55.4 µM and 285 µM: TGI [4]
> 100 µM and 158 µM: TGI [6]
> 100 µM and 162 µM: TGI [3]
inactive: GI50 [3] > 100 µM | GI50 [4] 24.1 µM and 176 µM | GI50 [9] > 100 µM | GI50 [6] > 100 µM | GI50 [10] > 100 µM | GI50 [8] 13.5 µM
